Assay results published in ChEMBL document CHEMBL1137634, “A cysteine protease inhibitor cures Chagas' disease in an immunodeficient-mouse model of infection” (2007).
Calls of active or inactive are those of the source. The calls are words filed in the database; no cut-off is given here.

Tests used:
Trypanosoma cruzi [1] = assay: Antitrypanosomal activity against Trypanosoma cruzi CA1/72 infected in recombinase Rag1 deficient mouse assessed as Trypanosoma-specific kinetoplast DNA in spleen at 50 mg/kg, ip twice daily for 27 days by PCR; type: functional, organism-based; parameters: dose 50 mg/kg
Trypanosoma cruzi [2] = assay: Antitrypanosomal activity against Trypanosoma cruzi CA1/72 infected in recombinase Rag1 deficient mouse assessed as protection against lethal acute Chaga's disease at 50 mg/kg, ip twice daily for 27 days; type: functional; conditions: route intraperitoneal
Trypanosoma cruzi [3] = assay: Antitrypanosomal activity against Trypanosoma cruzi CA1/72 infected in recombinase Rag1 deficient mouse assessed as Trypanosoma-specific kinetoplast DNA in liver at 50 mg/kg, ip twice daily for 27 days by PCR; type: functional, organism-based; parameters: dose 50 mg/kg
Trypanosoma cruzi [4] = assay: Antitrypanosomal activity against Trypanosoma cruzi CA1/72 infected in recombinase Rag1 deficient mouse assessed as protection against heart infection at 50 mg/kg, ip twice daily for 27 days measured at 16 to 24 weeks postinfection by histopathology; type: functional, organism-based; parameters: dose 50 mg/kg
Trypanosoma cruzi [5] = assay: Antitrypanosomal activity against Trypanosoma cruzi CA1/72 infected in recombinase Rag1 deficient mouse assessed as protection against colon infection at 50 mg/kg, ip twice daily for 27 days measured at 16 to 24 weeks postinfection by histopathology; type: functional, organism-based; parameters: dose 50 mg/kg
Trypanosoma cruzi [6] = assay: Antitrypanosomal activity against Trypanosoma cruzi CA1/72 infected in recombinase Rag1 deficient mouse assessed as Trypanosoma-specific kinetoplast DNA in blood at 50 mg/kg, ip twice daily for 27 days by PCR; type: functional, organism-based; parameters: dose 50 mg/kg
Trypanosoma cruzi [7] = assay: Antitrypanosomal activity against Trypanosoma cruzi CA1/72 infected in recombinase Rag1 deficient mouse assessed as protection against skeletal muscle infection at 50 mg/kg, ip twice daily for 27 days measured at 16 to 24 weeks postinfection by histopathology; type: functional, organism-based; parameters: dose 50 mg/kg; conditions: Muscle tissue
Trypanosoma cruzi [8] = assay: Antitrypanosomal activity against Trypanosoma cruzi CA1/72 infected in recombinase Rag1 deficient mouse assessed as survival from lethal infection at 50 mg/kg, ip twice daily for 27 days; type: functional; conditions: route intraperitoneal
Trypanosoma cruzi [9] = assay: Antitrypanosomal activity against Trypanosoma cruzi CA1/72 infected in recombinase Rag1 deficient mouse assessed as Trypanosoma-specific kinetoplast DNA in heart at 50 mg/kg, ip twice daily for 27 days by PCR; type: functional, organism-based; parameters: dose 50 mg/kg
Trypanosoma cruzi [10] = assay: Antitrypanosomal activity against Trypanosoma cruzi CA1/72 infected in recombinase Rag1 deficient mouse blood assessed as Trypanosoma-specific kinetoplast DNA in blood at 50 mg/kg, ip twice daily for 27 days measured after 80 to 160 days post-infection by PCR; type: functional, organism-based; parameters: dose 50 mg/kg
Trypanosoma cruzi [11] = assay: Antitrypanosomal activity against Trypanosoma cruzi CA1/72 infected in recombinase Rag1 deficient mouse assessed as protection against liver infection at 50 mg/kg, ip twice daily for 27 days measured at 16 to 24 weeks postinfection by histopathology; type: functional, organism-based; parameters: dose 50 mg/kg
Trypanosoma cruzi [12] = assay: Antitrypanosomal activity against Trypanosoma cruzi CA1/72 infected in immunocompetent C3HeB/FeJ mouse assessed as protection against lethal acute Chaga's disease at 50 mg/kg, ip twice daily for 27 days; type: functional; conditions: route intraperitoneal
Trypanosoma cruzi [13] = assay: Antitrypanosomal activity against Trypanosoma cruzi CA1/72 infected in recombinase Rag1 deficient mouse assessed as protection against spleen infection at 50 mg/kg, ip twice daily for 27 days measured at 16 to 24 weeks postinfection by histopathology; type: functional, organism-based; parameters: dose 50 mg/kg

CN1CCN(C(=O)N[C@@H](Cc2ccccc2)C(=O)N[C@H](/C=C/S(=O)(=O)c2ccccc2)CCc2ccccc2)CC1 [K-777]
Activity (Trypanosoma cruzi [1]): Active
Activity (Trypanosoma cruzi [2]): 60%
Activity (Trypanosoma cruzi [3]): Active
Activity (Trypanosoma cruzi [4]): Active
Activity (Trypanosoma cruzi [5]): Active
Activity (Trypanosoma cruzi [6]): inactive
Activity (Trypanosoma cruzi [7]): Active
Survival (Trypanosoma cruzi [8]): 150 days
Activity (Trypanosoma cruzi [9]): Active
Activity (Trypanosoma cruzi [10]): Active
Activity (Trypanosoma cruzi [11]): Active
Activity (Trypanosoma cruzi [12]): 100%
Activity (Trypanosoma cruzi [13]): Active
